Literature values in patent publication US20130224294A1, “DRY PROCESSING OF ATAZANAVIR” (priority 2010, published 2013).

Key:
[1] = at 24±3° C.; base formed by dissociation of the salt in the presence of water
[2] = free base

- solubility [1]: < 1 µg/mL
- bioavailability [2]: does not have sufficient bioavailability
- BCS class (high permeability/low solubility): BCS II
Structure (SMILES): COC(=O)N[C@H](C(=O)N[C@@H](Cc1ccccc1)[C@@H](O)CN(Cc1ccc(-c2ccccn2)cc1)NC(=O)[C@@H](NC(=O)OC)C(C)(C)C)C(C)(C)C [Atazanavir]
